Experimental data as given in patent US6414014B1 (Bristol-Myers Squibb Company, priority 1992, dated 2002).

Tests used:
[1] = Peripheral neuropathy symptoms (PNS) in the randomized taxol study; type: in vivo, patients
Experimental: A nurse remained with each patient for the first hour of each infusion. Temperature, pulse, blood pressure, and respiration were taken preinfusion, every 15 minutes for the first hour, every thirty minutes for the next 2 hours, hourly for the next 4 hours, and every other hour until the end of the infusion (for patients receiving the 24-hour infusion). Other observations were also documents, such as rash/redness of the skin, hives, vomiting, nausea, and any other symptoms including neuropathy and skin rashes.
80 of 157 patients (51%) experienced some sign of symptom of peripheral neurotoxicity. The incidents in the high dose arms was 66% (49/74), while the incidents in the low dose arms was 37% (31/83). The incidents of peripheral neuropathy in the long-term (24-hour) infusion was 48% (43/89), while the incidents of peripheral neuropathy in the short-term infusion arms was […] (37/68).

[2] = Hematologic toxicity (myelotoxicity) in the randomized taxol study, weekly blood counts; type: in vivo, patients
Experimental: Responses were evaluated every two cycles.
Eligible patients were randomized according to a computerized randomization log. During therapy, hematology data (hemoglobin, white blood cell count, granulocytes and platelets) were collected, and toxicity assessments were continuously made. After each cycle, a physical history update was recorded, as well as tumor measurement, performance status (ECOG), hematology, chemistry (serum creatinine, billirubin, alkaline phosphatase, (SLOT (AST), CA125) and a toxicity assessment. A quality of life assessment was also made after each cycle, and every two months until six months after treatment stopped.
White blood cell (WBC) counts, absolute neutrophil count (ANC), platelet counts, and hemoglobin (Hb) concentration were the primary variables used to evaluate treatment related myelosuppression. The World Health Orgination, WHO, grades of nadir for the entire study population of 157 patients during course 1 are presented in the table below. Leukopenia and neutropenia were the most frequent and severe hemotologic adverse effects observed during the first couse of treatment. 53% (83/156) of the patients had Grade III or IV neutropenia, while 39% (61/157) had Grade III or IV leukopenia.

[3] = arm 135/3 (mg/m^2/infusion hours), n = 39
[4] = arm 135/24 (mg/m^2/infusion hours), n = 44
[5] = arm 175/3 (mg/m^2/infusion hours), n = 29
[6] = arm 175/4 (mg/m^2/infusion hours), n = 45
[7] = TOTAL, all four arms, n = 157, course 1
[8] = arm 135/3 (mg/m^2/infusion hours), n = 39, course 1

## CC(=O)O[C@H]1C(=O)[C@@]2(C)[C@H]([C@H](OC(=O)c3ccccc3)[C@]3(O)C[C@H](OC(=O)[C@H](O)[C@@H](NC(=O)c4ccccc4)c4ccccc4)C(C)=C1C3(C)C)[C@]1(OC(C)=O)CO[C@@H]1C[C@@H]2O [taxol]
[1]; 44 of 118 patients
  patients asymptomatic prior to taxol who developed some peripheral neuropathy symptoms: 37%
[1]; 80 of 157, all arms
  patients with some sign or symptom of peripheral neurotoxicity: 51%
[1]; TOTAL, all four arms, n = 157
  First Occurence/Worsening of PNS By Cumulative Dose of Taxol: 201-400 mg/m^2: 22 n (%)
  First Occurence/Worsening of PNS By Cumulative Dose of Taxol: 401-600 mg/m^2: 4 n (%)
  First Occurence/Worsening of PNS By Cumulative Dose of Taxol: >600 mg/m^2: 5 n (%)
  First Occurence/Worsening of PNS By Cumulative Dose of Taxol: ≦200 mg/m^2: 23 n (%)
  Number of Patients Who Developed or Worsened PNS: 54 (34) n (%)
[1]; [3]
  First Occurence/Worsening of PNS By Courses: Course 1: 4 n (%)
  First Occurence/Worsening of PNS By Courses: Course 3: 1 n (%)
  First Occurence/Worsening of PNS By Courses: Course 4 and more: 3 n (%)
  First Occurence/Worsening of PNS By Cumulative Dose of Taxol: 201-400 mg/m^2: 1 n (%)
  First Occurence/Worsening of PNS By Cumulative Dose of Taxol: 401-600 mg/m^2: 2 n (%)
  First Occurence/Worsening of PNS By Cumulative Dose of Taxol: >600 mg/m^2: 2 n (%)
  First Occurence/Worsening of PNS By Cumulative Dose of Taxol: ≦200 mg/m^2: 4 n (%)
  Number of Patients Who Developed or Worsened PNS: 8 (21) n (%)
[1]; [4]
  First Occurence/Worsening of PNS By Courses: Course 1: 3 n (%)
  First Occurence/Worsening of PNS By Courses: Course 2: 2 n (%)
  First Occurence/Worsening of PNS By Courses: Course 3: 1 n (%)
  First Occurence/Worsening of PNS By Courses: Course 4 and more: 1 n (%)
  First Occurence/Worsening of PNS By Cumulative Dose of Taxol: 201-400 mg/m^2: 3 n (%)
  First Occurence/Worsening of PNS By Cumulative Dose of Taxol: 401-600 mg/m^2: 1 n (%)
  First Occurence/Worsening of PNS By Cumulative Dose of Taxol: >600 mg/m^2: 1 n (%)
  First Occurence/Worsening of PNS By Cumulative Dose of Taxol: ≦200 mg/m^2: 3 n (%)
  Number of Patients Who Developed or Worsened PNS: 7 (16) n (%)
[1]; [5]
  First Occurence/Worsening of PNS By Courses: Course 1: 7 n (%)
  First Occurence/Worsening of PNS By Courses: Course 2: 9 n (%)
  First Occurence/Worsening of PNS By Courses: Course 3: 1 n (%)
  First Occurence/Worsening of PNS By Courses: Course 4 and more: 1 n (%)
  First Occurence/Worsening of PNS By Cumulative Dose of Taxol: 201-400 mg/m^2: 9 n (%)
  First Occurence/Worsening of PNS By Cumulative Dose of Taxol: 401-600 mg/m^2: 1 n (%)
  First Occurence/Worsening of PNS By Cumulative Dose of Taxol: >600 mg/m^2: 1 n (%)
  First Occurence/Worsening of PNS By Cumulative Dose of Taxol: ≦200 mg/m^2: 7 n (%)
  Number of Patients Who Developed or Worsened PNS: 18 (62) n (%)
[1]; [6]
  First Occurence/Worsening of PNS By Courses: Course 1: 9 n (%)
  First Occurence/Worsening of PNS By Courses: Course 2: 8 n (%)
  First Occurence/Worsening of PNS By Courses: Course 3: 1 n (%)
  First Occurence/Worsening of PNS By Courses: Course 4 and more: 2 n (%)
  First Occurence/Worsening of PNS By Cumulative Dose of Taxol: 201-400 mg/m^2: 8 n (%)
  First Occurence/Worsening of PNS By Cumulative Dose of Taxol: 401-600 mg/m^2: 2 n (%)
  First Occurence/Worsening of PNS By Cumulative Dose of Taxol: >600 mg/m^2: 1 n (%)
  First Occurence/Worsening of PNS By Cumulative Dose of Taxol: ≦200 mg/m^2: 9 n (%)
  Number of Patients Who Developed or Worsened PNS: 20 (44) n (%)
[1]; high dose arms, 49/74
  incidence of peripheral neurotoxicity: 66%
[1]; in vivo
  peripheral neuropathy symptoms (PNS), about 135 mg/m^2 rather than about 175 mg/m^2: reduced
[1]; long-term (24-hour) infusion, 43/89
  incidence of peripheral neuropathy: 48%
[1]; low dose arms, 31/83
  incidence of peripheral neurotoxicity: 37%
[1]; short-term infusion arms, 37/68
  incidence of peripheral neuropathy: 50%
[2]; 3-hour infusion, 8/68, course 1
  patients with grade 4 neutropenia: 12%
[2]; 24-hour taxol infusion, 51/88, course 1
  patients with grade 4 neutropenia: 58%
[2]; [7]
  AMC Count, WHO grade 0 nadir, patients: 37 (24) n (%)
  AMC Count, WHO grade I nadir, patients: 13 (8) n (%)
  AMC Count, WHO grade II nadir, patients: 23 (15) n (%)
  AMC Count, WHO grade III nadir, patients: 24 (15) n (%)
  AMC Count, WHO grade IV nadir, patients: 59 (38) n (%)
  Platelet Count, WHO grade 0 nadir, patients: 147 (94) n (%)
  Platelet Count, WHO grade I nadir, patients: 6 (4) n (%)
  Platelet Count, WHO grade II nadir, patients: 2 (1) n (%)
  Platelet Count, WHO grade III nadir, patients: 1 (1) n (%)
  Platelet Count, WHO grade IV nadir, patients: 1 (1) n (%)
  WBC Count, WHO grade 0 nadir, patients: 31 (20) n (%)
  WBC Count, WHO grade I nadir, patients: 29 (18) n (%)
  WBC Count, WHO grade II nadir, patients: 36 (23) n (%)
  WBC Count, WHO grade III nadir, patients: 50 (32) n (%)
  WBC Count, WHO grade IV nadir, patients: 11 (7) n (%)
[2]; all arms
  patients with severe neutropenia (WHO Grade III and IV) during at least one course: 63%
[2]; [8]
  AMC Count, WHO grade 0 nadir, patients: 18 (46) n (%)
  AMC Count, WHO grade I nadir, patients: 8 (21) n (%)
  AMC Count, WHO grade II nadir, patients: 8 (21) n (%)
